Some test systems named below: BT-549 breast; A498 renal; HCC-2998 colon; SK-MEL-28 melanoma; DU-145 prostate; UACC-257 melanoma; MDA-MB-435; UACC-62 melanoma; IGROV1 ovarian; SK-MEL-2 melanoma.
Holding throughout (assay): inhibition of tumour cell growth, NCI panel, 48 h

Each structure is given as a SMILES string.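 These data come from cells grown in 96-well plates and exposed to compound for 48 hours at five concentrations. GI50 = concentration required for 50% inhibition of growth. The concentration for full growth arrest is given as TGI.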

As to `COc1cc2c(c(O)c1OC)CC1CCC(=O)N1C2c1cccc2ccccc12` (stereo not given), the TGI with BT-549 breast was determined as 41.6 µM; with A498 renal, 68.8 µM; in the assay on HCC-2998 colon, 33.3 µM; in the assay on SK-MEL-28 melanoma, 52.2 µM; with DU-145 prostate, 37.3 µM; in the assay with UACC-257 melanoma, 61 µM. Also, the TGI in the assay on MDA-MB-435 was found to be 40.4 µM; in the assay with UACC-62 melanoma, 30.9 µM; in the assay with IGROV1 ovarian it was 59.3 µM; with SK-MEL-2 melanoma it was 34.9 µM.
As for `Cn1ncc2c(Cl)ncnc21`, the TGI in the assay with BT-549 breast, in the assay with A498 renal, with HCC-2998 colon, with SK-MEL-28 melanoma, in the assay on DU-145 prostate and in the assay with UACC-257 melanoma was > 100 µM each time. In addition, the TGI in the assay on MDA-MB-435, with UACC-62 melanoma, in the assay on IGROV1 ovarian and in the assay on SK-MEL-2 melanoma was > 100 µM in each case.
On to `COC(=O)c1ccc(C)cc1CC1Cc2ccc(C)cc2C1=O` (stereo not given), for which the TGI is 52.6 µM in the assay with BT-549 breast; 9.19 µM in the assay on A498 renal; 32.3 µM in the assay with HCC-2998 colon; 76.7 µM with SK-MEL-28 melanoma; > 100 µM in the assay on DU-145 prostate; 53.6 µM with UACC-257 melanoma. Besides, the TGI in the assay with MDA-MB-435 is 4.03 µM; in the assay on UACC-62 melanoma, 51.4 µM; in the assay on IGROV1 ovarian, > 100 µM; in the assay with SK-MEL-2 melanoma it was 30.6 µM.
Take `O=C1C(Cl)=C(N(C(=O)c2ccccc2)C(=O)c2ccccc2)C(=O)c2ccccc21`: the TGI was 21.7 µM in the assay on BT-549 breast; > 100 µM in the assay on A498 renal; 37.4 µM in the assay on HCC-2998 colon; 40.2 µM in the assay on SK-MEL-28 melanoma; > 100 µM with DU-145 prostate; 28.7 µM in the assay on UACC-257 melanoma. Also, the TGI in the assay with MDA-MB-435 was 32.4 µM; in the assay with UACC-62 melanoma it was 19.8 µM; in the assay with IGROV1 ovarian it was > 100 µM; in the assay on SK-MEL-2 melanoma, 43.9 µM.
Turning to `COc1ccccc1NC(=O)CC(=O)N1N=C(N2c3ccccc3Sc3ccccc32)CC1c1ccccc1` (stereo not given), the TGI in the assay on BT-549 breast, in the assay on A498 renal, with HCC-2998 colon, in the assay on SK-MEL-28 melanoma, in the assay on DU-145 prostate and in the assay on UACC-257 melanoma was > 100 µM each time. For the same compound, the TGI in the assay with MDA-MB-435, in the assay with UACC-62 melanoma, with IGROV1 ovarian and in the assay with SK-MEL-2 melanoma was > 100 µM throughout.
As for `CC(C)=CCc1[nH]c2ccccc2c1C1=C(O)C(=O)C(c2c(CC=C(C)C)[nH]c3ccccc23)=C(O)C1=O`, the TGI with BT-549 breast was found to be 1.59 µM; in the assay on A498 renal, 2.72 µM; in the assay with HCC-2998 colon, 3.29 µM; with SK-MEL-28 melanoma, 2.9 µM; in the assay on DU-145 prostate, 10.9 µM; in the assay with UACC-257 melanoma it was 6.95 µM. Moreover, the TGI with MDA-MB-435 came to 2.39 µM; in the assay on UACC-62 melanoma, 2.94 µM; in the assay on IGROV1 ovarian, 3.45 µM; in the assay on SK-MEL-2 melanoma it was 3.95 µM.
With `O=C(NC(=O)c1cc(-c2ccccc2)n[nH]1)c1ccccc1`, the TGI with BT-549 breast, in the assay with A498 renal, with HCC-2998 colon, in the assay with SK-MEL-28 melanoma, in the assay on DU-145 prostate and with UACC-257 melanoma was > 100 µM each time. Also, the TGI in the assay with MDA-MB-435, in the assay on UACC-62 melanoma, in the assay on IGROV1 ovarian and in the assay on SK-MEL-2 melanoma was > 100 µM each time.
In the case of `CC(=O)Oc1c(-c2ccccc2)sc2ccccc12`, the TGI came out at 50 µM in the assay with BT-549 breast; 34.5 µM with A498 renal; 32 µM in the assay with HCC-2998 colon; 53.1 µM in the assay with SK-MEL-28 melanoma; 27.9 µM in the assay with DU-145 prostate; 37 µM in the assay with UACC-257 melanoma. The TGI was 59 µM with MDA-MB-435, 63.2 µM with UACC-62 melanoma, 30.7 µM with IGROV1 ovarian and 31.4 µM with SK-MEL-2 melanoma.
Consider `CC(C)(C)OC(=O)CN1CCNCCN(CC(=O)OC(C)(C)C)CCNCC1`, for which the TGI in the assay on BT-549 breast, in the assay with A498 renal, in the assay on HCC-2998 colon, in the assay with SK-MEL-28 melanoma, with DU-145 prostate and in the assay on UACC-257 melanoma was > 100 µM throughout. The TGI in the assay with MDA-MB-435, with UACC-62 melanoma, in the assay on IGROV1 ovarian and in the assay with SK-MEL-2 melanoma was > 100 µM throughout.
As to `S=c1[nH]n2c(CCCCCCCCc3nnc4sc(=S)[nH]n34)nnc2s1`, the TGI in the assay with BT-549 breast, in the assay on A498 renal, with HCC-2998 colon, in the assay with SK-MEL-28 melanoma, in the assay on DU-145 prostate and with UACC-257 melanoma was > 100 µM each time. Also, the TGI in the assay with MDA-MB-435, with UACC-62 melanoma, with IGROV1 ovarian and in the assay on SK-MEL-2 melanoma was > 100 µM throughout.
Turning to `O=C(N/N=C\c1ccc(N(CCCl)CCCl)cc1[N+](=O)[O-])c1cccnc1`, the GI50 in the assay with BT-549 breast, with A498 renal, in the assay with HCC-2998 colon, in the assay on SK-MEL-28 melanoma, in the assay with DU-145 prostate and with UACC-257 melanoma was > 100 µM each time. The GI50 in the assay with MDA-MB-435, in the assay on UACC-62 melanoma, with IGROV1 ovarian and in the assay on SK-MEL-2 melanoma was > 100 µM throughout. The TGI in the assay on BT-549 breast, with A498 renal, with HCC-2998 colon, in the assay on SK-MEL-28 melanoma, in the assay with DU-145 prostate and with UACC-257 melanoma was > 100 µM throughout. Further, the TGI with MDA-MB-435, in the assay with UACC-62 melanoma, with IGROV1 ovarian and in the assay with SK-MEL-2 melanoma was > 100 µM throughout.
Turning to `Nc1[nH]nc2nc3ccccc3nc12`, the TGI in the assay on BT-549 breast, in the assay with A498 renal, in the assay on HCC-2998 colon, with SK-MEL-28 melanoma, in the assay on DU-145 prostate and with UACC-257 melanoma was > 100 µM each time. In addition, the TGI was > 100 µM with MDA-MB-435, > 100 µM with UACC-62 melanoma, 99.2 µM with IGROV1 ovarian and > 100 µM in the assay on SK-MEL-2 melanoma.
As to `CN(C)c1ccc(/C=C(\NC(=O)c2ccccc2)C2=NC(CCC(=O)O)C(=O)O2)cc1` (stereo not given), the TGI with BT-549 breast, with A498 renal, with HCC-2998 colon, in the assay on SK-MEL-28 melanoma, in the assay with DU-145 prostate and in the assay with UACC-257 melanoma was > 50 µM each time. Further, the TGI with MDA-MB-435, in the assay with UACC-62 melanoma, in the assay on IGROV1 ovarian and in the assay on SK-MEL-2 melanoma was > 50 µM throughout.
